Columns and labels:
[1] = Solubility of menthol in composition ingredients; assay type: physicochemical; conditions: in liquid paraffin, white soft paraffin and essential oils
[2] = tested on: burning pain sensations in the vicinity of the vulva or anus; test: Other trials of mint extract compositions (gel, cream, wipes, spray) applied topically against burning pains; assay type: in vivo, human
Procedure: The composition may comprise the extract or equivalent up to 10% w/w but it is preferably present in a concentration of not more than substantially 5% w/w of the composition.
Additional to these trials, compositions were prepared using menthol (and others using peppermint oil) embodied in a light cream (which included water) with which small pieces of soft cloth were impregnated to form wipes. […] Alternative combinations of ingredients could be utilised, e.g. as known to those skilled in the art, possibly including a pharmaceutically acceptable excipient for the active ingredient/s. Preferably, the composition should contain one or more of vitamins E, A and D combined with a moisturizing element in white soft paraffin form (obtained as “Vaseline”, Registered Trade Mark in the UK) or aloe form for delicate skins. The composition should preferably be formulated so that it is effectively greaseless and non-staining. It should not contain hexachlorophene.

CC1CCC(C(C)C)C(O)C1 (centres unmarked) [menthol]
solubility [1]: at least 10 % w/w
outcome of trials as wipes ([2]; light cream (including water) impregnated on pieces of soft cloth): just as successful
relief compared with peppermint oil ([2]; menthol used instead of peppermint oil): Much improved relief
outcome of trials as spray ([2]; spray including glycols, glycerol and ethanol): used successfully
effect relative to peppermint oil ([2]; summary statement, related mint extracts): substantially more
